Reference: patent US20230085307A1, “PYRIDAZINONE COMPOUND AND HERBICIDE” (NISSAN CHEMICAL CORPORATION, priority 2019, published 2023)

Columns and labels:
redroot pigweed [1] = test: Test Example 5: herbicidal effect by foliage application, plastic box (Table 20, symbol N); assay type: in vivo, redroot pigweed (Amaranthus retroflexus); settings: foliage application, 176 g/ha, evaluated three weeks after application
How it was run: (§1)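 Sow seeds spot-wise in sterilized diluvial soil; cover with ~1.5 cm soil. Grow 14 days in greenhouse, 25° C. to 30° C. Spray foliage with emulsion diluted to predetermined amount. Rate effect after 3 weeks.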

rice flat sedge = test: Test Example 3: herbicidal effect by foliage application, Wagner pot (Table 18, symbol E); assay type: in vivo, rice flat sedge (Cyperus iria)
How it was run: (§2)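 Plants were sown in alluvial soil held under 0.1–0.5 cm standing water and grown 14 days in a greenhouse at 25–30 °C. An emulsifiable formulation, water-diluted to the set dose, was then sprayed onto the foliage, and effects were scored three weeks later using previously defined criteria.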

wild oat [2] = test: Test Example 4: herbicidal effect by soil treatment (Table 19, symbol I); assay type: in vivo, wild oat (Avena fatua)
How it was run: (§3)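 Soil-surface application: an emulsion agent diluted with water to the predetermined dose is sprayed uniformly over seeds lying under roughly 1.5 cm of sterilized diluvial soil. Boxes stay in a greenhouse at 25° C. to 30° C. Three weeks later, each species is graded on previously defined criteria.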

Japanese bulrush = test: Test Example 1: herbicidal activity, application before weed generation under submerged conditions (Table 16, symbol B); assay type: in vivo, Japanese bulrush (Schoenoplectus juncoides)
How it was run: (§4)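 Submerged Wagner pots (alluvial soil, 4 cm water) sown with weed seeds and planted with 2.5-leaf rice seedlings; emulsifiable concentrate diluted in water applied to water surface on sowing day. Held in greenhouse at 25-30 °C; injury scored 0-5 by herbicidal rate after three weeks.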

green foxtail [3] = test: Test Example 4: herbicidal effect by soil treatment (Table 19, symbol G); assay type: in vivo, green foxtail (Setaria viridis)
How it was run: as §3

windgrass [4] = test: Test Example 4: herbicidal effect by soil treatment (Table 19, symbol L); assay type: in vivo, windgrass (Apera spica-venti)
How it was run: as §3

southern crabgrass [5] = test: Test Example 5: herbicidal effect by foliage application, plastic box (Table 20, symbol F); assay type: in vivo, southern crabgrass (Digitaria ciliaris); settings: foliage application
How it was run: as §1

barnyard grass [6] = test: Test Example 5: herbicidal effect by foliage application, plastic box (Table 20, symbol H); assay type: in vivo, barnyard grass (Echinochloa crus-galli); settings: foliage application
How it was run: as §1

wild oat [7] = test: Test Example 5: herbicidal effect by foliage application, plastic box (Table 20, symbol I); assay type: in vivo, wild oat (Avena fatua); settings: foliage application
How it was run: as §1

chickweed [8] = test: Test Example 4: herbicidal effect by soil treatment (Table 19, symbol P); assay type: in vivo, common chickweed (Stellaria media)
How it was run: as §3

lambsquarters [9] = test: Test Example 4: herbicidal effect by soil treatment (Table 19, symbol O); assay type: in vivo, lambsquarters (Chenopodium album)
How it was run: as §3

persian speedwell [10] = test: Test Example 5: herbicidal effect by foliage application, plastic box (Table 20, symbol R); assay type: in vivo, Persian speedwell (Veronica persica); settings: foliage application
How it was run: as §1

oval-leafed pondweed = test: Test Example 1: herbicidal activity, application before weed generation under submerged conditions (Table 16, symbol C); assay type: in vivo, oval-leafed pondweed (Monochoria vaginalis)
How it was run: as §4

chickweed [11] = test: Test Example 5: herbicidal effect by foliage application, plastic box (Table 20, symbol P); assay type: in vivo, common chickweed (Stellaria media); settings: foliage application, 176 g/ha, evaluated three weeks after application
How it was run: as §1

velvetleaf [12] = test: Test Example 5: herbicidal effect by foliage application, plastic box (Table 20, symbol M); assay type: in vivo, velvetleaf (Abutilon theophrasti); settings: foliage application
How it was run: as §1

barnyard grass [13] = test: Test Example 3: herbicidal effect by foliage application, Wagner pot (Table 18, symbol H); assay type: in vivo, barnyard grass (Echinochloa crus-galli)
How it was run: as §2

velvetleaf [14] = test: Test Example 4: herbicidal effect by soil treatment (Table 19, symbol M); assay type: in vivo, velvetleaf (Abutilon theophrasti)
How it was run: as §3

persian speedwell [15] = test: Test Example 4: herbicidal effect by soil treatment (Table 19, symbol R); assay type: in vivo, Persian speedwell (Veronica persica)
How it was run: as §3

windgrass [16] = test: Test Example 5: herbicidal effect by foliage application, plastic box (Table 20, symbol L); assay type: in vivo, windgrass (Apera spica-venti); settings: foliage application
How it was run: as §1

barnyard grass [17] = test: Test Example 4: herbicidal effect by soil treatment (Table 19, symbol H); assay type: in vivo, barnyard grass (Echinochloa crus-galli)
How it was run: as §3

southern crabgrass [18] = test: Test Example 4: herbicidal effect by soil treatment (Table 19, symbol F); assay type: in vivo, southern crabgrass (Digitaria ciliaris)
How it was run: as §3

Chinese sprangletop = test: Test Example 3: herbicidal effect by foliage application, Wagner pot (Table 18, symbol D); assay type: in vivo, chinese sprangletop (Leptochloa chinensis)
How it was run: as §2

green foxtail [19] = test: Test Example 5: herbicidal effect by foliage application, plastic box (Table 20, symbol G); assay type: in vivo, green foxtail (Setaria viridis); settings: foliage application
How it was run: as §1

late watergrass = test: Test Example 1: herbicidal activity, application before weed generation under submerged conditions (Table 16, symbol A); assay type: in vivo, late watergrass (Echinochloa oryzicola)
How it was run: as §4

Italian ryegrass [20] = test: Test Example 4: herbicidal effect by soil treatment (Table 19, symbol K); assay type: in vivo, Italian ryegrass (Lolium multiflorum)
How it was run: as §3

Italian ryegrass [21] = test: Test Example 5: herbicidal effect by foliage application, plastic box (Table 20, symbol K); assay type: in vivo, Italian ryegrass (Lolium multiflorum); settings: foliage application
How it was run: as §1

blackgrass [22] = test: Test Example 4: herbicidal effect by soil treatment (Table 19, symbol J); assay type: in vivo, blackgrass (Alopecurus myosuroides)
How it was run: as §3

blackgrass [23] = test: Test Example 5: herbicidal effect by foliage application, plastic box (Table 20, symbol J); assay type: in vivo, blackgrass (Alopecurus myosuroides); settings: foliage application
How it was run: as §1

lambsquarters [24] = test: Test Example 5: herbicidal effect by foliage application, plastic box (Table 20, symbol O); assay type: in vivo, lambsquarters (Chenopodium album); settings: foliage application
How it was run: as §1

redroot pigweed [25] = test: Test Example 4: herbicidal effect by soil treatment (Table 19, symbol N); assay type: in vivo, redroot pigweed (Amaranthus retroflexus); settings: amount of applied herbicide 320 g/ha
How it was run: as §3

[26] = amount of applied herbicide 176 g/ha
[27] = 176 g/ha, evaluated three weeks after application
[28] = amount of applied herbicide 320 g/ha
[29] = 320 g/ha, three weeks after application

SMILES: COc1ccccc1-c1sc2ccc(C)cc2c1-c1c(O)c(C)nn(C)c1=O [2-138]
- herbicidal effect on N: redroot pigweed (redroot pigweed [1]): 0 (Herbicidal rate of 5% or less (almost no effect))
- herbicidal effect on E: rice flat sedge (rice flat sedge; [26]): 4 (Herbicidal rate of 70% or more and less than 90%)
- I: wild oat, herbicidal effect rating (wild oat [2]; [26]): 0 (Herbicidal rate of 5% or less (almost no effect))
- Herbicidal effect on B: Japanese bulrush (grade 0-5) (Japanese bulrush; 176 g/ha applied herbicide): 0 (Herbicidal rate of 5% or less (almost no effect))
- G: green foxtail, herbicidal effect rating (green foxtail [3]; [26]): 4 (Herbicidal rate of 70% or more and less than 90%)
- L: windgrass, herbicidal effect rating (windgrass [4]; [26]): 0 (Herbicidal rate of 5% or less (almost no effect))
- herbicidal effect on F: southern crabgrass (southern crabgrass [5]; [27]): 3 (Herbicidal rate of 40% or more and less than 70%)
- herbicidal effect on H: barnyard grass (barnyard grass [6]; [27]): 4 (Herbicidal rate of 70% or more and less than 90%)
- herbicidal effect on I: wild oat (wild oat [7]; [27]): 0 (Herbicidal rate of 5% or less (almost no effect))
- P: chickweed, herbicidal effect rating (chickweed [8]; [26]): 0 (Herbicidal rate of 5% or less (almost no effect))
- O: lambsquarters, herbicidal effect rating (lambsquarters [9]; [26]): 5 (Herbicidal rate of 90% or more (almost completely withered))
- herbicidal effect on R: persian speedwell (persian speedwell [10]; [27]): 5 (Herbicidal rate of 90% or more (almost completely withered))
- Herbicidal effect on C: oval-leafed pondweed (grade 0-5) (oval-leafed pondweed; 176 g/ha applied herbicide): 0 (Herbicidal rate of 5% or less (almost no effect))
- herbicidal effect on P: chickweed (chickweed [11]): 5 (Herbicidal rate of 90% or more (almost completely withered))
- herbicidal effect on M: velvetleaf (velvetleaf [12]; [27]): 5 (Herbicidal rate of 90% or more (almost completely withered))
- herbicidal effect on H: barnyard grass (barnyard grass [13]; [26]): 5 (Herbicidal rate of 90% or more (almost completely withered))
- M: velvetleaf, herbicidal effect rating (velvetleaf [14]; [26]): 0 (Herbicidal rate of 5% or less (almost no effect))
- R: persian speedwell, herbicidal effect rating (persian speedwell [15]; [26]): 0 (Herbicidal rate of 5% or less (almost no effect))
- herbicidal effect on L: windgrass (windgrass [16]; [27]): 4 (Herbicidal rate of 70% or more and less than 90%)
- H: barnyard grass, herbicidal effect rating (barnyard grass [17]; [26]): 3 (Herbicidal rate of 40% or more and less than 70%)
- F: southern crabgrass, herbicidal effect rating (southern crabgrass [18]; [26]): 0 (Herbicidal rate of 5% or less (almost no effect))
- herbicidal effect on D: Chinese sprangletop (Chinese sprangletop; [26]): 1 (Herbicidal rate of 5% or more and less than 20%)
- herbicidal effect on G: green foxtail (green foxtail [19]; [27]): 4 (Herbicidal rate of 70% or more and less than 90%)
- Herbicidal effect on A: late watergrass (grade 0-5) (late watergrass; 176 g/ha applied herbicide): 5 (Herbicidal rate of 90% or more (almost completely withered))
- K: Italian ryegrass, herbicidal effect rating (Italian ryegrass [20]; [26]): 0 (Herbicidal rate of 5% or less (almost no effect))
- herbicidal effect on K: Italian ryegrass (Italian ryegrass [21]; [27]): 3 (Herbicidal rate of 40% or more and less than 70%)
- J: blackgrass, herbicidal effect rating (blackgrass [22]; [26]): 3 (Herbicidal rate of 40% or more and less than 70%)
- herbicidal effect on J: blackgrass (blackgrass [23]; [27]): 3 (Herbicidal rate of 40% or more and less than 70%)
- herbicidal effect on O: lambsquarters (lambsquarters [24]; [27]): 4 (Herbicidal rate of 70% or more and less than 90%)

SMILES: Cc1nn(C)c(=O)c(-c2c(-c3ccc(Cl)cc3)oc3ccc(F)cc23)c1O [9-016]
- Herbicidal effect on E (rice flat sedge), foliage application (rice flat sedge; [28]): 4 (Herbicidal rate of 70% or more and less than 90%)
- I: wild oat, herbicidal effect grade (wild oat [2]; [28]): 2 (Herbicidal rate of 20% or more and less than 40%)
- Herbicidal effect, B: Japanese bulrush (Japanese bulrush; [28]): 0 (Herbicidal rate of 5% or less (almost no effect))
- G: green foxtail, herbicidal effect grade (green foxtail [3]; [28]): 4 (Herbicidal rate of 70% or more and less than 90%)
- L: windgrass, herbicidal effect grade (windgrass [4]; [28]): 4 (Herbicidal rate of 70% or more and less than 90%)
- herbicidal effect on southern crabgrass (F) (southern crabgrass [5]; [29]): 4 (Herbicidal rate of 70% or more and less than 90%)
- herbicidal effect on barnyard grass (H) (barnyard grass [6]; [29]): 5 (Herbicidal rate of 90% or more (almost completely withered))
- herbicidal effect on wild oat (I) (wild oat [7]; [29]): 4 (Herbicidal rate of 70% or more and less than 90%)
- P: chickweed, herbicidal effect grade (chickweed [8]; [28]): 3 (Herbicidal rate of 40% or more and less than 70%)
- N: redroot pigweed, herbicidal effect grade (redroot pigweed [25]): 5 (Herbicidal rate of 90% or more (almost completely withered))
- O: lambsquarters, herbicidal effect grade (lambsquarters [9]; [28]): 4 (Herbicidal rate of 70% or more and less than 90%)
- herbicidal effect on persian speedwell (R) (persian speedwell [10]; [29]): 5 (Herbicidal rate of 90% or more (almost completely withered))
- Herbicidal effect, C: oval-leafed pondweed (oval-leafed pondweed; [28]): 0 (Herbicidal rate of 5% or less (almost no effect))
- herbicidal effect on velvetleaf (M) (velvetleaf [12]; [29]): 5 (Herbicidal rate of 90% or more (almost completely withered))
- Herbicidal effect on H (barnyard grass), foliage application (barnyard grass [13]; [28]): 5 (Herbicidal rate of 90% or more (almost completely withered))
- M: velvetleaf, herbicidal effect grade (velvetleaf [14]; [28]): 1 (Herbicidal rate of 5% or more and less than 20%)
- R: persian speedwell, herbicidal effect grade (persian speedwell [15]; [28]): 5 (Herbicidal rate of 90% or more (almost completely withered))
- herbicidal effect on windgrass (L) (windgrass [16]; [29]): 4 (Herbicidal rate of 70% or more and less than 90%)
- H: barnyard grass, herbicidal effect grade (barnyard grass [17]; [28]): 4 (Herbicidal rate of 70% or more and less than 90%)
- F: southern crabgrass, herbicidal effect grade (southern crabgrass [18]; [28]): 3 (Herbicidal rate of 40% or more and less than 70%)
- Herbicidal effect on D (Chinese sprangletop), foliage application (Chinese sprangletop; [28]): 5 (Herbicidal rate of 90% or more (almost completely withered))
- herbicidal effect on green foxtail (G) (green foxtail [19]; [29]): 5 (Herbicidal rate of 90% or more (almost completely withered))
- Herbicidal effect, A: late watergrass (late watergrass; [28]): 3 (Herbicidal rate of 40% or more and less than 70%)
- K: Italian ryegrass, herbicidal effect grade (Italian ryegrass [20]; [28]): 4 (Herbicidal rate of 70% or more and less than 90%)
- herbicidal effect on Italian ryegrass (K) (Italian ryegrass [21]; [29]): 5 (Herbicidal rate of 90% or more (almost completely withered))
- J: blackgrass, herbicidal effect grade (blackgrass [22]; [28]): 0 (Herbicidal rate of 5% or less (almost no effect))
- herbicidal effect on blackgrass (J) (blackgrass [23]; [29]): 4 (Herbicidal rate of 70% or more and less than 90%)
- herbicidal effect on lambsquarters (O) (lambsquarters [24]; [29]): 5 (Herbicidal rate of 90% or more (almost completely withered))
